Results: patent US4383113A, “Agricultural sulfonamides” (E. I. Du Pont de Nemours and Company, priority 1981, dated 1983)

Key:
Experiment in all cases: Test A pre-emergence
morningglory = type: in vivo, Ipomoea spp.; parameters: key: 0 = no effect, 10 = maximum effect; letter = response symbol
Outline: (§1)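 Seeds and tubers were treated preemergence in a growth medium with compound in a nonphytotoxic solvent, against untreated controls; emerged plants such as two-leaf barnyardgrass and five-leaf cotton were sprayed postemergence, against solvent-sprayed controls. After sixteen days in a greenhouse, response was rated visually from 0 to 10.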

cocklebur = type: in vivo, Xanthium spp.; parameters: key: 0 = no effect, 10 = maximum effect; letter = response symbol
Outline: as §1

cassia = type: in vivo, Cassia tora; parameters: key: 0 = no effect, 10 = maximum effect; letter = response symbol; settings: 0.4 kg/ha
Outline: as §1

nutsedge = type: in vivo, Cyperus rotundus
Text: (§2) The activity of these compounds was discovered in a number of greenhouse and field tests. The ratings are based on a numerical scale extending from 0=no effect, to 10=maximum effect. The accompanying descriptive symbols have the following meanings:
(§3) Seeds of crabgrass (Digitaria spp.), barnyardgrass (Echinochloa crusgalli), wild oats (Avena fatua), cassia (Cassia tora), morningglory (Ipomoea spp.), cocklebur (Xanthium spp.), sorghum, corn, soybean, rice, wheat and nutsedge tubers (Cyperus rotundus) were planted in a growth medium and treated preemergence with a nonphytotoxic solvent solution of the compounds of Table XII. Other batches of seeds and tubers for all of the foregoing weed and crop plants were planted at the same time as controls. The control plantings were untreated; i.e., neither any compound nor any solvent was applied. At the same time, cotton having five leaves (including cotyledonary ones), bush beans with the third trifoliate leaf expanding, crabgrass with two leaves, barnyardgrass with two leaves, wild oats with two leaves, cassia with three leaves (including cotyledonary ones), morningglory with four leaves (including the cotyledonary ones), cocklebur with four leaves (including the cotyledonary ones), sorghum with four leaves, corn with four leaves, soybean with two cotyledonary leaves, rice with three leaves, wheat with one leaf, and nutsedge with three-five leaves were sprayed with a nonphytotoxic solvent solution of the compounds of Table XII. Other groups of all the same weed and crop plants were sprayed with the same nonphytotoxic solvent so as to provide control plants. Preemergence and postemergence treated plants and controls were maintained in a greenhouse for sixteen days, then all treated plants were compared with their respective controls and rated visually for response to treatment.

barnyardgrass = type: in vivo, Echinochloa crusgalli; parameters: key: 0 = no effect, 10 = maximum effect; letter = response symbol; settings: 0.4 kg/ha
Outline: as §1

soybean = type: in vivo; parameters: key: 0 = no effect, 10 = maximum effect; letter = response symbol
Outline: as §1

crabgrass = type: in vivo, Digitaria spp.; parameters: key: 0 = no effect, 10 = maximum effect; letter = response symbol
Text: as §2, §3

wild oats = type: in vivo, Avena fatua; parameters: key: 0 = no effect, 10 = maximum effect; letter = response symbol; settings: 0.4 kg/ha
Outline: as §1

corn = type: in vivo; parameters: key: 0 = no effect, 10 = maximum effect; letter = response symbol
Outline: as §1

sorghum = type: in vivo; parameters: key: 0 = no effect, 10 = maximum effect; letter = response symbol
Outline: as §1

wheat = type: in vivo; parameters: key: 0 = no effect, 10 = maximum effect; letter = response symbol; settings: 0.4 kg/ha
Outline: as §1

rice = type: in vivo; parameters: key: 0 = no effect, 10 = maximum effect; letter = response symbol; settings: 0.4 kg/ha
Outline: as §1

SMILES: COc1nc(C)nc(NC(=O)NS(=O)(=O)c2ccccc2C(=O)Oc2ccccc2C)n1
- response rating (morningglory; 0.4 kg/ha): 9G
- response rating (cocklebur; 0.4 kg/ha): 9G
- response rating (cassia): 9G
- response rating (nutsedge; 0.4 kg/ha): 8G
- response rating (barnyardgrass): 9H
- response rating (soybean; 0.4 kg/ha): 9H

SMILES: COC(=O)c1ccccc1S(=O)(=O)NC(=O)Nc1nc(OC)nc(OC)n1 [drawing 483]
- response rating (morningglory; 0.4 kg/ha): 9G
- response rating (cocklebur; 0.4 kg/ha): 9G
- response rating (cassia): 9G
- response rating (nutsedge; 0.4 kg/ha): 9G
- response rating (crabgrass; 0.4 kg/ha): 9H
- response rating (barnyardgrass): 9H
- response rating (wild oats): 9G
- response rating (corn; 0.4 kg/ha): 9G
- response rating (sorghum; 0.4 kg/ha): 9G
- response rating (soybean; 0.4 kg/ha): 9H
- response rating (wheat): 9G

SMILES: COc1nc(NC(=O)NS(=O)(=O)c2ccccc2C(=O)OCCCl)nc(OC)n1 [drawing 489]
- response rating (morningglory; 0.4 kg/ha): 9C
- response rating (cocklebur; 0.4 kg/ha): 9G
- response rating (crabgrass; 0.4 kg/ha): 4G
- response rating (wild oats): 8G
- response rating (corn; 0.4 kg/ha): 9G
- response rating (rice): 9H
- response rating (sorghum; 0.4 kg/ha): 9G
- response rating (soybean; 0.4 kg/ha): 9H
- response rating (wheat): 5G

SMILES: COc1nc(C)nc(NC(=O)NS(=O)(=O)c2ccccc2C(=O)OCCCl)n1 [drawing 493]
- response rating (morningglory; 0.4 kg/ha): 9C
- response rating (cocklebur; 0.4 kg/ha): 9G
- response rating (nutsedge; 0.4 kg/ha): 9G
- response rating (wild oats): 8H
- response rating (rice): 9H
- response rating (soybean; 0.4 kg/ha): 9H

SMILES: CCCCCCCCCCOC(=O)c1ccccc1S(=O)(=O)NC(=O)Nc1nc(OC)cc(OC)n1 [drawing 494]
- response rating (morningglory; 0.4 kg/ha): 5G
- response rating (cocklebur; 0.4 kg/ha): 9G
- response rating (cassia): 5G
- response rating (nutsedge; 0.4 kg/ha): 5G
- response rating (crabgrass; 0.4 kg/ha): 0
- response rating (wild oats): 6G
- response rating (rice): 8G
- response rating (sorghum; 0.4 kg/ha): 8G
- response rating (soybean; 0.4 kg/ha): 3G
- response rating (wheat): 2G

SMILES: CCCCCCCCCCOC(=O)c1ccccc1S(=O)(=O)NC(=O)Nc1nc(C)cc(OC)n1 [drawing 495]
- response rating (morningglory; 0.4 kg/ha): 8G
- response rating (cocklebur; 0.4 kg/ha): 9G
- response rating (cassia): 7G
- response rating (nutsedge; 0.4 kg/ha): 7G
- response rating (crabgrass; 0.4 kg/ha): 0
- response rating (rice): 9H
- response rating (wheat): 8G

SMILES: COc1cc(OC)nc(NC(=O)NS(=O)(=O)c2ccccc2C(=O)OC2CCCCC2)n1 [drawing 498]
- response rating (morningglory; 0.4 kg/ha): 8G
- response rating (cocklebur; 0.4 kg/ha): 8G
- response rating (cassia): 3G
- response rating (nutsedge; 0.4 kg/ha): 5G
- response rating (crabgrass; 0.4 kg/ha): 0
- response rating (barnyardgrass): 9H
- response rating (wild oats): 5G
- response rating (rice): 9H
- response rating (sorghum; 0.4 kg/ha): 8G
- response rating (wheat): 3G

SMILES: COc1nc(NC(=O)NS(=O)(=O)c2ccccc2C(=O)OC2CCCCC2)nc(OC)n1 [drawing 499]
- response rating (morningglory; 0.4 kg/ha): 9G
- response rating (cocklebur; 0.4 kg/ha): 9C
- response rating (cassia): 2C
- response rating (nutsedge; 0.4 kg/ha): 0
- response rating (crabgrass; 0.4 kg/ha): 0
- response rating (barnyardgrass): 9H
- response rating (wild oats): 2G
- response rating (rice): 5G
- response rating (sorghum; 0.4 kg/ha): 8G
- response rating (soybean; 0.4 kg/ha): 2C
- response rating (wheat): 2G

SMILES: Cc1cc(C)nc(NC(=O)NS(=O)(=O)c2ccccc2C(=O)O)n1 [drawing 511]
- response rating (morningglory; 10 kg/ha): 7G
- response rating (cocklebur; 10 kg/ha): 9G
- response rating (nutsedge; 10 kg/ha): 9G
- response rating (crabgrass; 10 kg/ha): 1C
- response rating (corn; 10 kg/ha): 8
- response rating (sorghum; 10 kg/ha): 5G
- response rating (soybean; 10 kg/ha): 4G

SMILES: COc1nc(C)nc(NC(=O)NS(=O)(=O)c2ccccc2C(=O)OC2CCCC2)n1 [drawing 512]
- response rating (morningglory; 0.4 kg/ha): 9G
- response rating (cocklebur; 0.4 kg/ha): 9G
- response rating (cassia): 8G
- response rating (nutsedge; 0.4 kg/ha): 9G
- response rating (crabgrass; 0.4 kg/ha): 6G
- response rating (barnyardgrass): 9H
- response rating (wild oats): 4G
- response rating (rice): 9H
- response rating (soybean; 0.4 kg/ha): 9H
- response rating (wheat): 4G

SMILES: COc1cc(C)nc(NC(=O)NS(=O)(=O)c2ccccc2C(=O)CCC(C)C)n1 [drawing 516]
- response rating (morningglory; 0.4 kg/ha): 9G
- response rating (cocklebur; 0.4 kg/ha): 9G
- response rating (cassia): 9G
- response rating (nutsedge; 0.4 kg/ha): 9G
- response rating (corn; 0.4 kg/ha): 9G
- response rating (sorghum; 0.4 kg/ha): 9H
- response rating (soybean; 0.4 kg/ha): 8H
- response rating (wheat): 9G

SMILES: COC(=O)c1cc(F)ccc1S(=O)(=O)NC(=O)Nc1nc(C)nc(OC)n1 [drawing 517]
- response rating (morningglory; 0.4 kg/ha): 9G
- response rating (cassia): 9G
- response rating (crabgrass; 0.4 kg/ha): 5G
- response rating (wild oats): 2G
- response rating (rice): 9H
- response rating (sorghum; 0.4 kg/ha): 9G
- response rating (soybean; 0.4 kg/ha): 9H
- response rating (wheat): 0

SMILES: COC(=O)c1cc(Cl)c(Cl)cc1S(=O)(=O)NC(=O)Nc1nc(C)cc(OC)n1 [drawing 519]
- response rating (morningglory; 0.4 kg/ha): 8G
- response rating (cocklebur; 0.4 kg/ha): 8G
- response rating (cassia): 0
- response rating (crabgrass; 0.4 kg/ha): 2G
- response rating (barnyardgrass): 9G
- response rating (wild oats): 4G
- response rating (rice): 9H
- response rating (wheat): 5G

SMILES: CCOCCOC(=O)c1ccccc1S(=O)(=O)NC(=O)Nc1nc(Cl)cc(Cl)n1 [drawing 520]
- response rating (morningglory; 0.4 kg/ha): 3G
- response rating (cassia): 0
- response rating (crabgrass; 0.4 kg/ha): 2G
- response rating (wild oats): 0
- response rating (corn; 0.4 kg/ha): 1C
- response rating (rice): 8H
- response rating (sorghum; 0.4 kg/ha): 8G
- response rating (soybean; 0.4 kg/ha): 0
- response rating (wheat): 0

SMILES: C=CCCC(C)OC(=O)c1ccccc1S(=O)(=O)NC(=O)Nc1nc(C)nc(OC)n1 (stereo not shown) [drawing 522]
- response rating (morningglory; 0.4 kg/ha): 9G
- response rating (cocklebur; 0.4 kg/ha): 9G
- response rating (cassia): 9G
- response rating (nutsedge; 0.4 kg/ha): 9G
- response rating (sorghum; 0.4 kg/ha): 9H
- response rating (soybean; 0.4 kg/ha): 9H
- response rating (wheat): 7G

SMILES: COc1nc(C)nc(NC(=O)NS(=O)(=O)c2ccccc2C(=O)OC2CCCCCCC2)n1 [drawing 523]
- response rating (cocklebur; 0.4 kg/ha): 9G
- response rating (cassia): 8G
- response rating (nutsedge; 0.4 kg/ha): 7G
- response rating (crabgrass; 0.4 kg/ha): 5G
- response rating (barnyardgrass): 9H
- response rating (wild oats): 7G
- response rating (rice): 9H
- response rating (soybean; 0.4 kg/ha): 9H
- response rating (wheat): 5G

SMILES: CCCC(OC(=O)c1ccccc1S(=O)(=O)NC(=O)Nc1nc(C)nc(OC)n1)C(C)C (stereo not shown) [drawing 525]
- response rating (morningglory; 0.4 kg/ha): 9G
- response rating (cocklebur; 0.4 kg/ha): 8G
- response rating (cassia): 8G
- response rating (nutsedge; 0.4 kg/ha): 5G
- response rating (crabgrass; 0.4 kg/ha): 0
- response rating (barnyardgrass): 9H
- response rating (wild oats): 5G
- response rating (corn; 0.4 kg/ha): 8G
- response rating (rice): 9H
- response rating (soybean; 0.4 kg/ha): 9H
- response rating (wheat): 3G

SMILES: COc1nc(C)nc(NC(=O)NS(=O)(=O)c2ccccc2C(=O)OC(C)CCl)n1 (stereo not shown) [drawing 526]
- response rating (morningglory; 0.4 kg/ha): 9G
- response rating (cocklebur; 0.4 kg/ha): 9G
- response rating (cassia): 8G
- response rating (corn; 0.4 kg/ha): 9G
- response rating (rice): 9H
- response rating (sorghum; 0.4 kg/ha): 9H
- response rating (soybean; 0.4 kg/ha): 9H
- response rating (wheat): 4G

SMILES: COc1nc(C)nc(NC(=O)NS(=O)(=O)c2ccccc2C(=O)OCc2ccc(Cl)cc2)n1 [drawing 527]
- response rating (morningglory; 0.4 kg/ha): 9G
- response rating (cocklebur; 0.4 kg/ha): 8G
- response rating (cassia): 8G
- response rating (nutsedge; 0.4 kg/ha): 9G
- response rating (wild oats): 4G
- response rating (rice): 9H
- response rating (soybean; 0.4 kg/ha): 7H
- response rating (wheat): 0

SMILES: CCCCCCCCCCCCNC(=O)c1ccccc1S(=O)(=O)NC(=O)Nc1nc(C)nc(OC)n1 [drawing 534]
- response rating (morningglory; 0.4 kg/ha): 9G
- response rating (cocklebur; 0.4 kg/ha): 8G
- response rating (cassia): 8G
- response rating (barnyardgrass): 9H
- response rating (wild oats): 6G
- response rating (corn; 0.4 kg/ha): 8G
- response rating (rice): 9H
- response rating (wheat): 6G

SMILES: CCCCCCOC(=O)c1ccccc1S(=O)(=O)NC(=O)Nc1nc(C)cc(COC)n1 [drawing 538]
- response rating (morningglory; 0.4 kg/ha): 0
- response rating (cocklebur; 0.4 kg/ha): 0
- response rating (cassia): 0
- response rating (crabgrass; 0.4 kg/ha): 0
- response rating (barnyardgrass): 2G
- response rating (wild oats): 0
- response rating (rice): 8H
- response rating (sorghum; 0.4 kg/ha): 3G
- response rating (soybean; 0.4 kg/ha): 0
- response rating (wheat): 0
